Measurements: ChEMBL document CHEMBL4304740, “Structure-Based Design of Selective β-Site Amyloid Precursor Protein Cleaving Enzyme 1 (BACE1) Inhibitors: Targeting the Flap to Gain Selectivity over BACE2” (J Med Chem, 2019)

Legend:
in vitro [1] = conditions: mouse, liver microsomes
in vivo = conditions: Crl:CD(ICR), mouse, brain/plasma, po, 30 mg/kg
in vitro [2] = conditions: human, liver microsomes
physchem = conditions: octanol/phosphate buffered saline, pH 7.4

Compound | remaining at 0.5 h, 0.1 µM (in vitro [1]) | Kp (in vivo) | remaining at 0.5 h, 0.1 µM (in vitro [2]) | logD (physchem)
C[C@]1(c2cc(NC(=O)c3cnc(OCF)cn3)ccc2F)N=C(N)SCC12CCC(F)(F)CC2 | 4.5% | 0.55 | 27% | 2.3
C[C@]1(c2cc(NC(=O)c3cnc(OCF)cn3)ccc2F)N=C(N)SCC12CCOCC2 | 5% |  | 51% | 1.2
